According to article PMC9699089 (Pathogens, 2022):
Read-outs that look alike come from different tables or passages of the source.

Assays:
[1] = tested on: Plasmodium telomeric sequence FPf1T G-quadruplex; experiment: FRET melting assay, FPf1T; type: binding, Plasmodium falciparum; settings: compound 2 μM, oligonucleotide 0.2 μM, K+ conditions
Description: These were performed with dual-labeled oligonucleotides mimicking the Plasmodium telomeric sequences FPf1T [FAM-5′(GGGTTTA)3-GGG3′-TAMRA] and FPf8T [FAM-5′(GGGTTCA)3GGG3′-TAMRA], the Trypanosoma 9 and 11 chromosomic sequence FTrypBT (also named FEBR1T) [FAM-5′[…]3′-TAMRA], the human telomeric sequence F21T [FAM-(GGGTTA)3-GGG3′-TAMRA] and the human duplex sequence FdxT [FAM5′-[…]-hexaethyleneglycol-[…]3′-TAMRA] [27, 31, 47]. The oligonucleotides were pre-folded in 10 mM lithium cacodylate buffer (pH 7.2), with 10 mM KCl and 90 mM LiCl (K^+ condition). The FAM emissions were recorded at 516 nm using a 492-nm excitation wavelength in the absence and presence of a single compound as a function of temperature (25 to 95 °C) in 96-well microplates using a Stratagene MX3000P real-time PCR device at a rate of 1 °C∙min-1. Data were normalized between 0 and 1, and the required temperature for half-denaturation of oligonucleotides corresponding to the emission value of 0.5 was taken as the Tm. Each experiment was performed in duplicate with 0.2 µM of labeled oligonucleotide and 2 µM of compound under K^+ condition. For each compound, three independent experiments were carried out.

[2] = tested on: T. brucei brucei AnTat 1.9; experiment: In vitro antitrypanosomal activity, Alamar Blue assay; type: cell-based, Trypanosoma brucei brucei; settings: Trypanosoma brucei, slender bloodstream trypomastigotes, AnTat 1.9 strain; mean +/- SD of three independent experiments; read-out: Trypanosoma brucei brucei IC50 Values Trypanos Antat 1.9
How it was run: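 Bloodstream T. brucei brucei AnTat 1.9 cultured in supplemented MEM with Earle's salts and exposed to compounds in duplicate for 69 h at 37 °C. Alamar Blue then added for 5 h, with fluorescence read at ex 530/em 590 nm.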

[3] = tested on: Trypanosoma 9 and 11 chromosomic sequence FTrypBT (FEBR1T) G-quadruplex; experiment: FRET melting assay, FtrypBT; type: binding, Trypanosoma brucei brucei; settings: compound 2 μM, oligonucleotide 0.2 μM, K+ conditions
How it was run: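 Dual-labelled FAM/TAMRA oligonucleotides (0.2 µM) pre-folded in 10 mM lithium cacodylate pH 7.2, 10 mM KCl, 90 mM LiCl, with 2 µM compound. FAM emission (ex 492/em 516 nm) followed from 25 to 95 °C at 1 °C/min; Tm is the temperature at normalized emission 0.5, compared with and without compound.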

[4] = molecular target: human telomeric sequence 24TTG; experiment: Native electrospray mass spectrometry, 24TTG; type: binding; set-up: key to Kd 24TTG, stoichiometry 1 (Kd1): n.b.: no binding detected; <LOQ: binding detected but below limit of quantitation; settings: 100 mM TMAA, 1 mM KCl
Description: (§1) Oligonucleotides were purchased in the lyophilized form from Eurogentec (RP-cartridge purification), and dissolved at 1 mM in pure water. TMAA (1 M) was purchased from Santa Cruz Biotechnology and potassium chloride (purity > 99.99%) from Sigma Aldrich (Sigma Aldrich, Saint-Quentin-Fallavier, France). The sample solutions contained 10 µM oligonucleotide and 10 (for CD only) or 20 µM ligand, in a 100 mM TMAA, 1mM KCl buffer. The solutions were incubated overnight at 4 °C before analysis.
(§2) The sample solutions were injected at a 10 µM strand concentration on an Agilent 6560 DTIMS-Q-TOF instrument (Agilent Technologies, Santa Clara, CA, USA), equipped with a dual-ESI source operated in the negative ion mode in soft conditions. The following parameters were used: fragmentor 320 V, trap fill time 1000 µs, trap release time 200 µs, trap entrance grid delta 2 V. The drift tube was filled with helium and the pressure was fixed at 3.89 ± 0.01 Torr (measured by a capacitance diaphragm gauge CDG-500, Agilent Technologies).
(§3) The MS data were extracted using the IM-MS Browser (v. B.08.00; Agilent Technologies). The peak area intensity of each species at the 5- charge state was extracted from their corresponding m/z range (encompassing potassium adducts), and baseline subtracted. The concentrations of all species (free DNA, free ligands, and complexes) and corresponding dissociation constants were determined as previously described.

[5] = molecular target: duplex-forming sequence DK66; experiment: Native electrospray mass spectrometry, DK66; type: binding; set-up: key to Kd DK66, stoichiometry 2 (Kd2) / Kd DK66, stoichiometry 1 (Kd1): n.b.: no binding detected; <LOQ: binding detected but below limit of quantitation; settings: 100 mM TMAA, 1 mM KCl; for Kd: read-out: Kd DK66, stoichiometry 1 (Kd1); for Kd DK66, stoichiometry 2 (Kd2): 2:1 ligand:DNA complex
Description: as §1, §2, §3

[6] = tested on: Plasmodium falciparum CQ-sensitive strain 3D7; experiment: In vitro antiplasmodial activity, SYBR Green I fluorescence-based method, strain 3D7; type: cell-based; settings: CQ-sensitive strain 3D7, 48 h incubation, mean of three independent experiments, read-out: P. falciparum Strains IC50 Values 3D7
Description: (§4) The in vitro antiplasmodial activities were tested over concentrations ranging from 39 nM to 40 µM against culture-adapted Plasmodium falciparum reference strains 3D7 and W2. […] These two strains are obtained from the collection of the National Museum of Natural History (Paris, France). The parasites were cultivated in RPMI medium (Sigma Aldrich, Lyon, France) supplemented with 0.5% Albumax I (Life Technologies Corporation, Paisley, UK), hypoxanthine (Sigma Aldrich), and gentamicin (Sigma Aldrich) with human erythrocytes and were incubated at 37 °C in a candle jar, as described previously. The P. falciparum drug susceptibility test was carried out in 96-well flat bottom sterile plates in a final volume of 250 µL. After 48 h incubation period with the drugs, quantities of DNA in treated and control cultures of parasites in human erythrocytes were quantified using the SYBR Green I (Sigma Aldrich) fluorescence-based method. Briefly, after incubation, plates were frozen at -20 °C until use. Plates were then thawed for 2 h at room temperature, and 100 µL of each homogenized culture was transferred to a well of a 96-well flat bottom sterile black plate (Nunc, Inc.) that contained 100 µL of the SYBR Green I lysis buffer (2xSYBR Green, 20 mM Tris base pH 7.5, 5 mM EDTA, 0.008% w/v saponin, 0.08% w/v Triton X-100). […] Plates were incubated for 1 h at room temperature and then read on a fluorescence plate reader (Tecan, Austria) using excitation and emission wavelengths of 485 and 535 nm, respectively.

[7] = tested on: Plasmodium falciparum CQ-resistant strain W2; experiment: In vitro antiplasmodial activity, SYBR Green I fluorescence-based method, strain W2; type: cell-based; settings: CQ-resistant strain W2, 48 h incubation, mean of three independent experiments, read-out: P. falciparum Strains IC50 Values W2
Description: as §4

[8] = 1:1 ligand:DNA complex, read-out: Kd 24TTG, stoichiometry 1 (Kd1)
[9] = 2:1 ligand:DNA complex, read-out: Kd 24TTG, stoichiometry 2 (Kd2)

| Compound | ΔTm FPf1T [1] | IC50 [2] | ΔTm FtrypBT [3] | Kd [4, 8] | Kd [4, 9] | Kd ([5]; 1:1 ligand:DNA complex) | Kd DK66, stoichiometry 2 (Kd2) [5] | IC50 [6] | IC50 [7] | Kd 24TTG, stoichiometry 1 (Kd1) ([4]; 1:1 ligand:DNA complex) | Kd DK66, stoichiometry 1 (Kd1) ([5]; 1:1 ligand:DNA complex) |
| --- | --- | --- | --- | --- | --- | --- | --- | --- | --- | --- | --- |
| CN(C)CCCCNCc1cc(-c2ccccc2)c2ccc3c(-c4ccccc4)cc(CNCCCCN(C)C)nc3c2n1 [Compound 1c, 2,9-Bis[(4-dimethylaminobutyl)aminomethyl]-4,7-diphenyl-1,10-phenanthroline] | 8.9 °C | 0.86 ± 0.16 µM | 10.6 °C | 44 µM | 28 µM | 110 µM | n.b. | 10.3 ± 2.13 µM | 0.03 ± 0.003 µM | – | – |
| CN(C)CCCCCNCc1cc(-c2ccccc2)c2ccc3c(-c4ccccc4)cc(CNCCCCCN(C)C)nc3c2n1 [Compound 1d, 2,9-Bis[(5-dimethylaminopentyl)aminomethyl]-4,7-diphenyl-1,10-phenanthroline] | 18.8 °C | 1.42 ± 0.1 µM | 14.7 °C | 38 µM | 62 µM | 53 µM | n.b. | 4.79 ± 0.5 µM | 3.51 ± 0.52 µM | – | – |
| c1ccc(-c2cc(CNCCCN3CCCC3)nc3c2ccc2c(-c4ccccc4)cc(CNCCCN4CCCC4)nc23)cc1 [Compound 1l] | 15.4 °C | 1.13 ± 0.06 µM | 11.6 °C | 34 µM | 18 µM | 55 µM | n.b. | 9.91 ± 1.73 µM | 0.03 ± 0.01 µM | – | – |
| c1ccc(-c2cc(CNCCc3ccccn3)nc3c2ccc2c(-c4ccccc4)cc(CNCCc4ccccn4)nc23)cc1 [Compound 1m] | 1.3 °C | – | 1.8 °C | – | – | – | – | 0.47 ± 0.12 µM | 0.07 ± 0.01 µM | n.b. | n.b. |
